Patent publication US7320978B2, “Oxazole derivatives, preparation and therapeutic use thereof” (Sanofi-Aventis, priority 2004, dated 2008)

melting point: 175 °C
Structure (SMILES): CC(=O)C1(c2ccccc2)CCN(C(=O)c2nc(-c3ccc(Cl)cc3)c(-c3ccc(Cl)cc3Cl)o2)CC1
